The subject of series [1] is DMBA induced mouse skin tumor development. In words: chronic animal bioassay: DMBA induced mouse skin tumor development, topical treatment. The class given is in vivo, female Swiss albino mice. Conditions: DMBA 200 ug/kg; Cag 240 mg/kg, NA 240 mg/kg, BA 8 mmoles/kg body wt; topical twice weekly; terminated after 30 weeks; 15 animals each group. The text has this: We have used female Swiss albino mice from the inbred colony of Industrial Toxicology Research Center, Lucknow, India. The treatment schedule was followed as described earlier (22). Animals were shaved on the back (2×2 cm) in the interscapular region using surgical clippers. Only the animals in the resting phase of hair growth were selected for the study. For this chronic animal bioassay, we have taken 135 animals and divided them into 9 groups, consisting of 15 animals each. Group 1 served as negative control group where animals received acetone/DMSO only. For the entire study we have used 7,12-Dimethylbenz (a) anthracene (DMBA) as a skin carcinogen. DMBA was used at the dose of 200 μg/kg body wt in 0.1 ml acetone. In group 3, animals were treated with DMBA followed by concomitant application of Calcium D-glucarate (240 mg/kg body wt in 0.1 ml of DMSO). […] In group 5, animals were treated with DMBA followed by concomitant application of Butyric acid (8 mmoles in 0.1 ml of acetone). […] In group 7, animals were treated with DMBA followed by a concomitant application of Calcium D-glucarate, Butyric acid. […] All the treatments were applied topically. […] Animals were inspected regularly for tumor incidence, baldness, acne, poor health, sickness etc. Experiment was terminated after 30 weeks.
Experimental Design (15 Animals Each Group)

Another series concerns skin papilloma formation. Conditions: topical, cited from earlier work; for rate of survival: SENCAR mice; for skin papilloma formation: from the ninth week of promotion.
Another series has as its system skin tumor formation. Conditions: topical application; cited from earlier work.
A further series relates to mouse skin papillomas. Conditions: at higher concentrations; cited from earlier work.

Consider `Cc1c2ccccc2c(C)c2c1ccc1ccccc12` [DMBA, 7,12-Dimethylbenz (a) anthracene], for which, in series [1], the “100% tumorigenesis [in weeks]” value came out at 28 weeks, the “Cumulative no. of tumor” value was 62, the “No. of tumo bearing animal/Initial No. of animals” value was 15/15 and the “Onset of firs tumor [in weeks]” value is listed as 15 weeks.
For `C=CCSSCC=C` [diallyl disulfide], in the series on skin papilloma formation, the rate of survival result is listed as “significantly increased” and the skin papilloma formation entry is on record as “significantly inhibited”.
In the case of `C=CCSCC=C` [diallyl sulfide], in the series on skin papilloma formation, the rate of survival entry was “significantly increased” and the skin papilloma formation result is listed as “significantly inhibited”.
Turning to `CC(C)=CCOc1ccc2ccc(=O)oc2c1` [7-Isopentenyloxucoumarin], the skin tumor formation entry in the series with skin tumor formation is “suppressed”.
On to `O=C([O-])[C@@H](O)[C@@H](O)[C@H](O)[C@@H](O)C(=O)[O-].[Ca+2]` [DMBA + CaG, Calcium D-glucarate], for which, in series [1], the “Cumulative no. of tumor” value came out at 12, the “No. of tumo bearing animal/Initial No. of animals” value is given as 10/15 and the “Onset of firs tumor [in weeks]” value is given as 18 weeks.
Turning to `CC1=C(/C=C/C(C)=C/C=C/C(C)=C/C(=O)O)C(C)(C)CCC1` [retinoic acid], the cytotoxicity entry in the series on mouse skin papillomas is “cytotoxic”.
For the compound `NC(=O)c1cccnc1` [DMBA + NA, Nicotinamide], in series [1], the “100% tumorigenesis [in weeks]” value is given as 0 weeks, the “Cumulative no. of tumor” value amounted to 09, the “No. of tumo bearing animal/Initial No. of animals” value was 08/15 and the “Onset of firs tumor [in weeks]” value stood at 21 weeks.

The record behind these values is patent publication US7655678B2, “Pharmaceutical composition for the management of tumors” (Council of Scientfic & Industrial Research, priority 2004, dated 2010).
